Measurements as given in US20190195897A1, “GLYCOSYLATED METABOLITES” (UNIVERSITEIT LEIDEN, priority 2015, published 2019).

What was measured:
COS7 cells = experiment: GlcChol in cultured COS7 cells incubated with inhibitors of GBA2 and GBA; assay type: cell-based; conditions: for increased cellular GlcChol level in cells with overexpressed GCS: COS7 cells with overexpressed GCS, 2 days with inhibitor
Procedure: FIG. 4A: GlcChol (nmol/g protein) in COS cells without overexpression of enzymes (control), overexpressed GBA2, GCS and both (GBA2+GCS). Cells were incubated for 2 days with indicated inhibitors of GBA2 (AMP-DNM) and GBA (CBE).
The GlcChol content of cultured COS7 cells and factors influencing this was determined. First the impact of overexpressed GBA2 and GCS was studied.
COS-7 cells were cultured in Iscove's modified Dulbecco's medium (Life Technologies, Carlsbad, Calif., USA) supplemented with 5% fetal bovine serum (FBS; Bodinco, Alkmaar, The Netherlands) and in the presence of penicillin/streptomycin Liffe Technologies, Carlsbad, Calif., USA under 5% CO2 at 37° C. […] After 72 h, the medium was removed, cells were washed trice with ice-cold PBS and harvested by scraping in 25 mM potassium-phosphate buffer, pH 6.5.
COS-7 cells overexpressing GBA2 and/or GCS were homogenized by sonication on ice. Prior to extraction, 2 pmol of ^13C-labelled GlcChol in methanol (used as an internal standard) was added to 180 μL of homogenate. Next, lipids were extracted according to the method of Bligh and Dyer by addition of methanol, chloroform and water (1:1:0.9, v/v/v) and the lower phase was taken to dryness under a stream of nitrogen. Isolated Is lipids were purified by water/butanol extraction (1:1, v/v) and 8-GlcChol was analyzed by LC-MS as described before.

RAW 267 cells = experiment: GlcChol in RAW 267 cells exposed to U18666A; assay type: cell-based; conditions: for increase of GlcChol in U18666A exposed cells: RAW 267 cells with U18666A, added agent present
Procedure: FIG. 5C: GlcChol (pmol/mg protein) in RAW 267 cells incubated with indicated concentration U18666A for 1 day in absence and presence of conduri.tol B-epoxide (CBE) inhibiting GBA.
FIG. 5D: GlcChol (pmol/mg protein) in RAW 267 cells incubated with 10 uM U18666A for 1 day and in subsequent absence and presence of 1 mM β-methylcyclodextrin (β-mCD) reducing intralysosomal cholesterol.

type 1 GD patients = experiment: Plasma GlcChol in treated type 1 GD patients; assay type: in vivo, human; conditions: plasma specimens of type 1 GD patients
Procedure: FIG. 6C: Reduction in plasma GlcChol following Eliglustat treatment.
GlcChol levels in plasma of untreated symptomatic type 1 GD patients was determined as well as in NPC patients, carriers and healthy controls. […] The abnormalities are more pronounced when plasma GlcChol is related to Chol (FIG. 6B).
For quantitative analysis of GlcChol in samples of plasma, we developed a LC-MS/MS method using the MRM mode of the transitions mentioned above. Firstly, GlcChol was extracted from plasma from a healthy individual according the method of Bligh and Dyer (28) with a few modifications. 20 μL of plasma was pipetted in an Eppendorf tube (2 mL) and 20 μL of an internal standard solution, containing 0.1 pmol/μL of ^13C6-β-GlcChol in methanol, was added, followed by addition of 280 μL methanol and 150 μL of chloroform. After brief mixing, the sample was left at room temperature for 30 min, mixed occasionally and centrifuged for 10 min at 15700×g to spin down precipitated protein. The supernatant was transferred to an Eppendorf tube and 150 μL chloroform and 250 μL water were added to induce separation of phases. After centrifugation (5 min at 15700×g) the lower, hydrophobic phase was transferred to a clean Eppendorf tube and the upper phase was washed. by addition of 300 μL of chloroform. Lower phases were pooled and taken to dryness at 35° C. under a nitrogen stream. […]

type 1 GD mice = experiment: Treatment of mice with induced Gaucher disease with GCS inhibitor; plasma GlcCer and GlcChol; assay type: in vivo; conditions: treated with GCS inhibitor
Text: FIG. 2E: Plasma GlcChol (nM) in normal, type 1 GD mice untreated and treated with GENZ 112638.
As shown in FIG. 2A and FIG. 2B, the GlcChol concentration was markedly lower in tissues of GBA2-deficient animals, especially in thymus. In contrast, in the GBA-deficient LIMP-2 KO mice no reduction in GlcChol, but rather a small increase in levels was observed (FIG. 2A, 2B). An increase in GlcChol was also observed in liver of mice with an induced GBA deficiency in the white blood cell lineage (FIG. 2C). Efficient correction of GBA deficiency by gene therapy led to a concomitant reduction of GlcChol (FIG. 2C).
The following mice were used for investigation: GD1 mice in which GBA-deficiency was induced (31, 32); mice with spontaneous Niemann Pick Type C (33) and Npc1−/− mice (34); LIMP2−/− mice (35), and GBA2 −/− mice (22). Animals were sacrificed and tissue were immediately frozen and stored at −80° C.
For quantitative analysis of GlcChol in samples of plasma, we developed a LC-MS/MS method using the MRM mode of the transitions mentioned above. Firstly, GlcChol was extracted from plasma from a healthy individual according the method of Bligh and Dyer (28) with a few modifications. […]

With `O[C@H]1[C@H](O)[C@@H](O)[C@@H]2O[C@@H]2[C@@H]1O` (racemic) [CBE, Conduritol B epoxide] as the compound, how does the “increased cellular GlcChol level in cells with overexpressed GCS” value (COS7 cells) read?
Its value is “did hardly diminish”.

And the “increase of GlcChol in U18666A exposed cells” value (RAW 267 cells)?
The value was “prevented completely”.

Which results are given for `OC[C@@H]1[C@@H](O)[C@H](O)[C@@H](O)CN1CCCCCOCC12CC3CC(CC(C3)C1)C2` [AMP-DNM, N-(5-adamantane-1-yl-methoxy-pentyl)-deoxynojirimycin]?
increased cellular GlcChol level in cells with overexpressed GCS (COS7 cells): the elevation in GlcChol was prevented; cellular GlcChol (COS7 cells; COS7 cells, low nanomolar inhibitor, 2 days): reduced cellular GlcChol

With `CCCCCCCC(=O)N[C@H](CN1CCCC1)[C@H](O)c1ccc2c(c1)OCCO2` [Eliglustat] as the compound, how does the “plasma GlcChol following treatment” value (type 1 GD patients) read?
Its value is “prominent reduction”.

With `CCCCCCCC(=O)N[C@H](CN1CCCC1)[C@H](O)c1ccc2c(c1)OCCO2` [GENZ 112638] as the compound, how does the “elevated plasma GlcChol” value (type 1 GD mice) read?
The value was “minor, not statistically significant, reduction”.

What about the “plasma GlcCer” value (type 1 GD mice) of the same compound?
The value was “partial reduction”.

Which “GlcChol in cells on induction of lysosomal cholesterol accumulation” value (RAW 267 cells; RAW 267 cells, 1 day) does the source give for `CCN(CC)CCO[C@H]1CC[C@@]2(C)C(=CC[C@@H]3[C@@H]2CC[C@]2(C)C(=O)CC[C@@H]32)C1` [U18666A] here?
The value was “rapid increase”.

How did the “plasma GlcChol following treatment” value (type 1 GD patients) turn out when `CCCCN1C[C@H](O)[C@@H](O)[C@H](O)[C@H]1CO` [Zavesca] was run?
Its value is “not”.

With “β-methylcyclodextrin [B-methyl-cyclodextrin]” as the compound, how does the “increase of GlcChol in U18666A exposed cells” value (RAW 267 cells) read?
The value was “prevented”.
